# Data reported in patent US6841661B2, “Glycopeptide antibacterial compounds, compositions containing same and methods of using same” (Princeton Univerisity, priority 1999, dated 2005).
# “And” between values parts separate entries of the source, which are not always exact repeats. Identical values can stand only once. Like-named read-outs stand apart in the source and are kept apart here.
# Tests used:
# [1] = tested on: Staphylococcus aureus strain MB2985; assay: In vivo mouse methicillin-sensitive Staphylococcus aureus septicemia protection; design: species or system ICR female mice
# Description: Selected compounds of the invention are tested in an in vivo mouse model. Single dose subcutaneous antibiotic protection from septicemic infections is measured as described by Gill, C. J., J. J. Jackson, L. Gerckens, B. Pelak, R. Thompson, J. Sundelof, H. Kropp and H. Rosen. Antimicrob. Agents Chemother. 42:1996-2001 (1998). Survival is monitored for seven days. ED50's and LD50's are determined by the method of Knudsen and Curtis. J. Am. Stat. Assoc. 42:282-296 (1947). Septicemia is induced in 20 gram ICR (derived from CD-I) female mice by intraperitoneal infection with Staphylococcus aureus strain MB2985. Infection is given i.p. in Brain Heart Broth (BHB) at an infectious inoculum of 1.8×10^7 cfu/mouse. Drug is administered subcutaneously immediately after the infection is initiated.
# [2] = tested on: MRSA MH 76; assay: In vitro MIC panel assay (NCCLS broth microdilution); format: cell-based, Staphylococcus aureus; settings: MRSA MH 76; MH II broth
# From the text: (§1) National Committee for Clinical Laboratory Standards (NCCLS) guidelines [Methods for Dilution Antimicrobial Susceptibility Tests for Bacteria that Grow Aerobically-Fourth Edition; Approved Standard (NCCLS Document M7-A4, January 1997)] are used to establish the assay, although variations are made to optimize the published method according to the specific needs of the present investigation.
# (§2) The test panel currently includes eight enterococci and 13 staphylococci, which are selected based upon their antibiotic susceptibility profiles. The methicillin-sensitive Staphylococcus aureus (MSSA) strain MB2985 (Smith isolate) is used to assesses the potential for serum protein binding of the compounds. The paired Gram-negative strains ASP #49 (envA-) and ASP #50 (envA+) (M. Salvatore/N. Lee) are included to judge membrane effects. Table 3 presents a detailed description of the strains included in the panel, including some of the sources of the strains of bacteria.
# The glycopeptide antibiotic teicoplanin is included whenever possible. […]
# The number of CFU/mL is determined on BHI agar plates, although this is not done routinely because titers of overnight cultures are relatively constant. […]
# [3] = Pharmacokinetic studies; format: in vivo; settings: compared with compound 2; stated as and/or
# [4] = tested on: S. aureus MB 2985; assay: MIC by microdilution in Mueller-Hinton broth (in vivo study); format: cell-based; settings: inoculum 1.4 × 10^5 cfu/mL in cation adjusted MHB
# Description: The MIC is determined by microdilution in Mueller-Hinton broth (MHB) according to the National Committee for Clinical Laboratory Standards guidelines after incubation for 24 hours. Enterococci are tested in cation-supplemented Mueller-Hinton broth at 1.4×10^5 cfu/ml. MIC is defined as the lowest concentration of antibiotic, which inhibits visible growth.
# [5] = tested on: E. faecium CL 5053 (VanA); assay: microbe, parasite or virus in culture; format: cell-based; design: CL5053 (in vitro testing): unit not given here
# Method in brief: (§3)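 Twofold broth microdilution per modified NCCLS M7-A4, 35 °C. Enterococci and VISA/MRSA in BHI (VISA/MRSA precultured in TSB + 10% HS), E. coli in MH II. Inocula ~1-5×10^6 CFU/ml for enterococci, ~3-7×10^5 CFU/ml otherwise. MIC is the lowest concentration with no visible growth, read at 18-20 hr (E. coli) or 22-24 hr.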
# [6] = tested on: E. coli ASP #50 (envA+); assay: In vitro MIC panel assay (NCCLS broth microdilution); format: cell-based; settings: E. coli ASP #50 (envA+); MH II broth
# From the text: as §1, §2
# (§4) The glycopeptide antibiotic teicoplanin is included whenever possible.
# (§5) TSB, containing 10% HS* for vancomycin intermediate S. aurcus/methicillin-resistant S. aureus (VISA/MRSA) strains, is inoculated from an appropriate source (frozen broth or agar slant) and grown approximately 17 hr at 35° C. with shaking at 220 rpm. Cultures are grown in tubes with a volume of 5 ml for enterococci and 2 ml for all other strains.
# (§6) Four milliliter (4 ml) overnight culture is added to 36 ml physiological saline to obtain tenfold dilutions (enterococci). Overnight culture (0.4 ml) is added to 39.6 ml saline to obtain 100-fold dilutions (all strains except enterococci). Diluted cultures are maintained on ice until time of inoculation of test plates.
# (§7) The number of CFU/mL is determined on BHI agar plates, although this is not done routinely because titers of overnight cultures are relatively constant. The test media include: • BHI for enterococci and VISA/MRSA; • MH II (i.e., cation-adjusted Mueller-Hinton broth) for MRS, MSS and E. coli.; • MH II+HSA for MSSA is prepared as follows: • a. 2×MHII+86mg/ml HSA • b. Dissolve 4.3 g HSA in 50 ml autoclaved 2x MH II. • c. pH to 7.0 by adding 2M MOPS, sodium. • d. Filter sterilize using 0.22 μm Coming cellulose acetate filter, used because of reported low protein binding. • e. 1×MH II+43 mg/ml HSA • f. Dilute the 2×medium twofold and filter as above. 5.8.6. Preparation of Test Plates
# (§8) Using a Denley liquid handling system (or similar automatic device), 100 μ1×medium is added to each well in columns 2-12 of a 96-well microtiter dish. Using a multichannel pipettor, 100 μl 2×medium is added to each well in column 1. Plates may be filled on the day prior to assay, wrapped in plastic bags and refrigerated.
# (§9) Vancomycin, Schering 29482, and teicoplanin are prepared on a weight per volume basis using 10 mM 3-(N-morpholino)propane-sulfonic acid (MOPS) buffer pH 7. Test compounds are received in solution in appropriate solvent (typically as 1 mg/ml in DMSO) or are dissolved in appropriate solvent prior to further dilution in 10 mM MOPS buffer, ph7. Consistent with NCCLS guidelines, antibiotics are handled aseptically but are not otherwise sterilized.
# (§10) 100 μl appropriately diluted antibiotic solution is added to the first well of the designated row of the 96-well microtiter dish and serially diluted by twofold across the row using the Denley liquid handling system. With the aid of a Dynatech NEC 2000 inoculator, each well of the microtiter dish is inoculated with 1.5 μl diluted overnight culture, yielding approximately 1-5×10^6 CFU/ml for enterococci and approximately 3-7×10^5 CFU/ml for all other strains. Dishes are placed in stacks of no more than five, wrapped in plastic bags and incubated at 35° C. • Indication of result(s) type (% INH, IC50, Zone size, etc.) • MIC=minimum inhibitory concentration ps 5.8.9. Interpretation of the Results on the Basis of Activity […]
# [7] = tested on: E. coli ASP #49 (envA-); assay: as above; format: cell-based; settings: E. coli ASP #49 (envA−); MH II broth
# From the text: as §1, §2, §4, §5, §6, §7, §8, §9, §10
# [8] = tested on: MRCNS CL 202 (S. haem.); assay: as above; format: cell-based; settings: MRCNS CL 202 (S. haem.); MH II broth
# From the text: as §1, §2, §4, §5, §6, §7, §8, §9, §10
# [9] = tested on: MRCNS CL 3069 (S. epi.); assay: as above; format: cell-based; settings: MRCNS CL 3069 (S. epi.); MH II broth
# From the text: as §1, §2, §4, §5, §6, §7, §8, §9, §10
# [10] = tested on: E. faecalis CL 4877 (VanB); assay: microbe, parasite or virus in culture; format: cell-based; design: CL4877 (in vitro testing): unit not given here; settings: for MIC, CL4877: E. faecalis CL 4877 (VanB)
# Method in brief: (§11)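 NCCLS M7-A4-based broth microdilution with twofold serial dilutions, incubated at 35° C; medium BHI for enterococci and VISA/MRSA, cation-adjusted Mueller-Hinton for E. coli. Inoculum about 1-5×10^6 CFU/ml (enterococci) or 3-7×10^5 CFU/ml (others); MIC is lowest concentration with no visible growth, read at 18-20 hr for E. coli, 22-24 hr otherwise.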
# [11] = tested on: E. faecium CL 5242 (VanA); assay: microbe, parasite or virus in culture; format: cell-based; design: CL5242 (in vitro testing): unit not given here; settings: for MIC, CL5242: E. faecium CL 5242 (VanA)
# Method in brief: as §3
# [12] = tested on: CL 4931, CL 5053, CL 5242 and CL 4877; format: cell-based, E. faecium, E. faecalis; design: unit not given here
# Method in brief: as §11
# [13] = tested on: E. faecium CL 4931 (VanA); assay: microbe, parasite or virus in culture; format: cell-based; design: CL4931 (in vitro testing): unit not given here; settings: for MIC, CL4931: E. faecium CL 4931 (VanA)
# Method in brief: as §3
# [14] = mouse septicemia, S. aureus 2985 i.p. 1.8 × 10^7 cfu/mouse, single s.c. dose at 0 hr, survival seven days
# [15] = Table 9, mean MIC over CL4931, CL5053, CL5242, CL4877
# [16] = Table 9, E. faecium CL 5053 (VanA)
compound,measurement,setting,value
"CNC(CC(C)C)C(=O)NC1C(=O)NC(CC(N)=O)C(=O)NC2C(=O)NC3C(=O)NC(C(=O)NC(C(=O)O)c4cc(O)cc(O)c4-c4cc3ccc4O)C(O)c3ccc(c(Cl)c3)Oc3cc2cc(c3OC2OC(CN)C(O)C(O)C2OC2CC(C)(NCc3ccc(OCc4ccc(Cl)c(Cl)c4)cc3)C(O)C(C)O2)Oc2ccc(cc2Cl)C1O (centres unmarked) [Compound 13, Glucos-6-amino-N-4-(3,4-dichlorobenzyloxy)benzyl-vancosamino-vancomycin]",ED50/MIC,"[1]; S. aureus 2985, ratio of s.c. ED50 to MIC",3.12
same,ED0 (s.c.),[1]; [14],0.195 mg/kg
same,ED50 (s.c.),[1]; [14],0.390 mg/kg
same,ED100 (s.c.),[1]; [14],0.780 mg/kg
same,MIC,[2],0.25 µg/mL
same,bioavailability,[3],unexpectedly greater bioavailability
same,clearance rate,[3],faster clearance rate
same,tissue distribution,[3],more favorable tissue distribution
same,MIC,[4],0.125 µg/mL
same,MIC,"[5]; E. faecium CL 5053 (VanA), BHI broth",1 µg/mL and 2 µg/mL
same,MIC,[6],>64 µg/mL and 64 µg/mL
same,MIC,[7],16 µg/mL and 8 µg/mL
same,MIC,[8],0.12 µg/mL and 0.06 µg/mL
same,MIC,[9],0.06 µg/mL and 0.03 µg/mL
CNC(CC(C)C)C(=O)NC1C(=O)NC(CC(N)=O)C(=O)NC2C(=O)NC3C(=O)NC(C(=O)NC(C(=O)O)c4cc(O)cc(O)c4-c4cc3ccc4O)C(O)c3ccc(c(Cl)c3)Oc3cc2cc(c3OC2OC(CNCc3ccccc3)C(O)C(O)C2OC2CC(C)(NCc3ccc(-c4ccc(Cl)cc4)cc3)C(O)C(C)O2)Oc2ccc(cc2Cl)C1O (centres unmarked) [Compound 190],"MIC, CL4877",[10]; Table 9,4 µg/mL
same,"MIC, CL5242",[11]; Table 9,2 µg/mL
same,Mean,[12]; [15],5.5
same,"MIC, CL5053",[5]; [16],8 µg/mL
same,"MIC, CL4931",[13]; Table 9,8 µg/mL
"C=Cc1ccccn1 [Compound 191, 2-pyridylethylene]","MIC, CL4877",[10]; Table 9,16 µg/mL
same,"MIC, CL5242",[11]; Table 9,4 µg/mL
same,Mean,[12]; [15],13.0
same,"MIC, CL5053",[5]; [16],16 µg/mL
same,"MIC, CL4931",[13]; Table 9,16 µg/mL
CNC(CC(C)C)C(=O)NC1C(=O)NC(CC(N)=O)C(=O)NC2C(=O)NC3C(=O)NC(C(=O)NC(C(=O)O)c4cc(O)cc(O)c4-c4cc3ccc4O)C(O)c3ccc(c(Cl)c3)Oc3cc2cc(c3OC2OC(CNCC3CCCO3)C(O)C(O)C2OC2CC(C)(NCc3ccc(-c4ccc(Cl)cc4)cc3)C(O)C(C)O2)Oc2ccc(cc2Cl)C1O (centres unmarked) [Compound 192],"MIC, CL4877",[10]; Table 9,16 µg/mL
same,"MIC, CL5242",[11]; Table 9,4 µg/mL
same,Mean,[12]; [15],13.0
same,"MIC, CL5053",[5]; [16],16 µg/mL
same,"MIC, CL4931",[13]; Table 9,16 µg/mL
teicoplanin [reference compound],"MIC, CL4877",[10]; Table 9,0.5 µg/mL
same,"MIC, CL4877",[10]; Table 10,16 µg/mL
same,CL4877 (in vitro testing),"[10]; Tables 7 and 8, unit not given",0.5
same,"MIC, CL5242",[11]; Table 9,256 µg/mL
same,"MIC, CL5242",[11]; Table 10,256 µg/mL
same,CL5242 (in vitro testing),"[11]; Tables 7 and 8, unit not given",256
same,Mean,[12]; [15],128.1
same,Mean,"[12]; Table 10, mean MIC over CL4931, CL5053, CL5242, CL4877",256.0
same,Mean,"[12]; mean of CL4931, CL5053, CL5242, CL4877, unit not given",170.8
same,"MIC, CL5053",[5]; [16],> 1020 µg/mL
same,"MIC, CL5053","[5]; Table 10, E. faecium CL 5053 (VanA)",> 1020 µg/mL
same,CL5053 (in vitro testing),"[5]; Tables 7 and 8, unit not given",>1024
same,"MIC, CL4931",[13]; Table 9,256 µg/mL
same,"MIC, CL4931",[13]; Table 10,256 µg/mL
same,CL4931 (in vitro testing),"[13]; Tables 7 and 8, unit not given",256
